The values that follow come from patent publication US7705065B2, “Photoinitiator functionalized with alkoxy groups” (Xerox Corporation, priority 2007, dated 2010).

A short description of the series: Solubility of about 10 wt % photoinitiator in alkoxy-containing curable monomers. Format: physicochemical. The settings on record: about 10 wt % solutions in each of SR9003, SR209, SR399LV and SR454; about room temperature (approximately 22° C. to 27° C.). From the text: The following monomers were used for testing: 1) SR9003 (propoxylated neopentyl glycol diacrylate), 2) SR209 (tetraethylene glycol dimethacrylate), 3) SR399LV (low viscosity dipentaerythritol pentacrylate esters), and 4) SR454 (ethoxylated trimethylolpropane triacrylate esters).

Consider `CC(C)(O)C(=O)c1ccc(OCCO)cc1` [IRGACURE® 2959, 4-(2-hydroxyethyloxy)phenyl-(2-hydroxy-2-propyl) ketone], for which the solubility in monomers entry was “insoluble”.
